Earlier results, collected in US8389024B2, “Abscisic acid against cancer” (priority 2005, dated 2013).
Like-named read-outs stand apart in the source and are kept apart here. Blank lines part the entries; values can stand above or below the compound they belong to.

Experiments:
[1] = test system: head and neck squamous cell carcinoma; details: in vivo
[2] = test system: lymphoblastic leukemia, prostate, breast and melanoma human cancer cells
[3] = the mentioned concentration (50 mg/ml), Sigma-Aldrich
stomatal opening = details: 10 mcM ABA extracellular application
DU-145 (prostate cancer) = details: DU-145 tumor cells
[4] = test system: human and murine pancreatic beta cells
humans with cancer = details: 62 random cases, inconclusive cases not considered; digestive treatment with ABA plus vaccine against P. crytocides
[5] = test system: C 1498 transplanted tumor with myeloid leukemia; details: for rate of survival at the end of 14 days: groups of 10 mice, treated 7 days; for survival: oral
[6] = test system: HL-60 (promyelocytic leukemia); details: HL-60 tumor cells
[7] = test system: TCA8113 (human oral carcinoma); details: TCA8113 cells in vitro
TNFALFA = details: human monocytes, murine microglia and murine macrophages
[8] = test system: four human cancer cell lines (HELA, DU145, HCT116 AND K562)

Compound: CC1=C(/C=C/C(C)=C/C=C/C(C)=C\C(=O)O)C(C)(C)CCC1 [ISOTRETINOIN]
effectiveness in chemoprevention trial [1]: not effective

half-lives (catabolism) (leaf discs of V. Faba): 30 to 32 h
Compound: CC1=CC(=O)CC(C)(C)C1(O)/C=C/C(C)=C\C(=O)O (racemic) [racemic ABA (R)]

Compound: O=C([O-])c1ccccc1O.[Na+] [SA, sodium salicylate]
proliferation or apoptosis of mammalian cancer cells [2]: can suppress the proliferation or cause apoptosis

appearance of the solution in ethanol [3]: clear to slightly hazy
Compound: CC1=CC(=O)CC(C)(C)C1(O)/C=C/C(C)=C\C(=O)O (racemic) [(+/−)-Abscisic acid]

Compound: CC/C=C\CC1C(=O)CCC1CC(=O)OC (stereo not drawn) [MJ, methyl jasmonate]
proliferation or apoptosis of mammalian cancer cells [2]: can suppress the proliferation or cause apoptosis

half-lives (catabolism) (leaf discs of V. Faba): 6 to 8 h
Compound: CC1=CC(=O)CC(C)(C)[C@@]1(O)/C=C/C(C)=C\C(=O)O [natural ABA (S)]

Compound: [S-(Z,E)]-5-(1-Hydroxy-2,6,6-trimethyl-4-oxo-2-cyclohexen-1-yl)-3-methyl-2,4-pentadienoic acid [ABA]
functional activities of human granulocytes (human granulocytes): stimulates several functional activities as phagocytosis, reactive oxygen species (ROS) and nitric oxide production, and chemotaxis
inhibition of stomatal opening (stomatal opening; pH 6.15): 98%
inhibition of stomatal opening (stomatal opening; pH 8.0): 57%
angiogenesis (a variety of tumor cells): inhibit angiogenesis
apoptosis (a variety of tumor cells): produce apoptosis
cell cycle and cell division of proliferating tumor cells (a variety of tumor cells): make proliferating tumor cells stagnate in S-phase and stop cell division
differentiation of cancer cells (a variety of tumor cells): become cancer cells in normal cells
nuclear protein Ki67 expressed in proliferating tumor cells (nuclear protein Ki67): reduced
EPD after ABA treatment (Lemna gibba G1; after 15 hours ABA treatment, from −109 mV): −194 mV
potential increase in average (EPD) (Lemna gibba G1; treatment with 10-100 mcm ABA): 85 mV
changes in morphology of cancer cells (DU-145 (prostate cancer)): growth in poor condition and nuclear pycnosis
insulin secretion [4]: endogenous stimulator of insulin secretion
success rate (humans with cancer): around 82%
rate of survival at the end of 14 days ([5]; Group II, ABA 1 mg/kg (i.p)): 9 survivors
rate of survival at the end of 14 days ([5]; Group III, ABA 10 mg/kg (i.p)): 10 survivors
rate of survival at the end of 14 days ([5]; Group IV, ABA 10 mg/kg (oral)): 6 survivors
rate of survival at the end of 14 days ([5]; Group V, ABA 100 mg/kg (oral)): 9 survivors
survivors ([5]; group number II, 1 mg/kg): 90%
inhibition of the tumor system (C1498) in mice (C57BL/6J) ([5]; mouse, in vivo): marked effect in the inhibition
survival ([5]; dose at 10 mg/kg): 60%
survival ([5]; dose at 100 mg/kg): 90%
changes in morphology of cancer cells [6]: absence of tumor cell nuclear membrane microvilli and presentation of typical apoptosis characteristics
expression of differentiation and apoptosis markers [7]: expression of RARBETA, involucrin protein and caspase-3 mRNA
TNFALFA (TNFALFA): increased
apoptosis [8]: induction of apoptosis
cell cycle progression [8]: changed cell cycle progression
cell proliferation rate [8]: reduced cell proliferation rate
luminescence (indicator of reduced negative surface charge) [8]: reduced luminescence
tumor growth [8]: tumor growth reduction

Compound: CC/C=C\C[C@H]1C(=O)CC[C@@H]1CC(=O)O [JA, jasmonic acid]
proliferation or apoptosis of mammalian cancer cells [2]: can suppress the proliferation or cause apoptosis
